Assay [1] concerns the target Activated CDC42 kinase 1 (Homo sapiens, UniProt Q07912).
Assay [2] has as its target T1, Heme oxygenase 2 (Homo sapiens, UniProt P30519).
T1 sequence (P30519 whole entry): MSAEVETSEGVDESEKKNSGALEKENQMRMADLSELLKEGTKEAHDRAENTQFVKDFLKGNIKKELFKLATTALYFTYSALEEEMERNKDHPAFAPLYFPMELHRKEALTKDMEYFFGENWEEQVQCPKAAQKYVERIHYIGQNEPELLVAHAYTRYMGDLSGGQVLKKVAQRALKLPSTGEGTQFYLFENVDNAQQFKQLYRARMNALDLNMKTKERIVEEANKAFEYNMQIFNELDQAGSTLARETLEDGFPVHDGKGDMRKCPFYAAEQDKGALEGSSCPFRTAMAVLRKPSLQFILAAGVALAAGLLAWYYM

The target in assay [3] is T2, Serine/threonine-protein kinase A-Raf (Homo sapiens, UniProt P10398).
T2 sequence (P10398 whole entry): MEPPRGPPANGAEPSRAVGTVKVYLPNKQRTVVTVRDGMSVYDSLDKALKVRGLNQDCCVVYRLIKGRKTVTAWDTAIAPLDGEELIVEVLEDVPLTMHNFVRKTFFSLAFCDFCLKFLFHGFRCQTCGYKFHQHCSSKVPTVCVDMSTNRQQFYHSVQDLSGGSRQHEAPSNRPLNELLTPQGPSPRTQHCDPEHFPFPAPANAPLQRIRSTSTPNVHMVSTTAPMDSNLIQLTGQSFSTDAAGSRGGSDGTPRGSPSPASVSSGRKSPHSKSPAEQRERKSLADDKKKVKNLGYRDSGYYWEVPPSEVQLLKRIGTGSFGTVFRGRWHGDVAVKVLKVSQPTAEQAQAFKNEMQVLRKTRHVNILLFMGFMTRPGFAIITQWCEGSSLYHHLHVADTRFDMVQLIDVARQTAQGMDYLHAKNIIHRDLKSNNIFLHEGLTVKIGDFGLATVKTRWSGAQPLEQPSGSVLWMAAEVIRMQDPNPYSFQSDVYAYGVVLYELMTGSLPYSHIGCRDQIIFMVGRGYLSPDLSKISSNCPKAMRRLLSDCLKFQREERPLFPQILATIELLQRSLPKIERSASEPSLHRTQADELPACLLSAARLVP

Assay [4] deals with T3, Structural maintenance of chromosomes protein 1A (Homo sapiens, UniProt Q14683).
T3 sequence (Q14683 whole entry): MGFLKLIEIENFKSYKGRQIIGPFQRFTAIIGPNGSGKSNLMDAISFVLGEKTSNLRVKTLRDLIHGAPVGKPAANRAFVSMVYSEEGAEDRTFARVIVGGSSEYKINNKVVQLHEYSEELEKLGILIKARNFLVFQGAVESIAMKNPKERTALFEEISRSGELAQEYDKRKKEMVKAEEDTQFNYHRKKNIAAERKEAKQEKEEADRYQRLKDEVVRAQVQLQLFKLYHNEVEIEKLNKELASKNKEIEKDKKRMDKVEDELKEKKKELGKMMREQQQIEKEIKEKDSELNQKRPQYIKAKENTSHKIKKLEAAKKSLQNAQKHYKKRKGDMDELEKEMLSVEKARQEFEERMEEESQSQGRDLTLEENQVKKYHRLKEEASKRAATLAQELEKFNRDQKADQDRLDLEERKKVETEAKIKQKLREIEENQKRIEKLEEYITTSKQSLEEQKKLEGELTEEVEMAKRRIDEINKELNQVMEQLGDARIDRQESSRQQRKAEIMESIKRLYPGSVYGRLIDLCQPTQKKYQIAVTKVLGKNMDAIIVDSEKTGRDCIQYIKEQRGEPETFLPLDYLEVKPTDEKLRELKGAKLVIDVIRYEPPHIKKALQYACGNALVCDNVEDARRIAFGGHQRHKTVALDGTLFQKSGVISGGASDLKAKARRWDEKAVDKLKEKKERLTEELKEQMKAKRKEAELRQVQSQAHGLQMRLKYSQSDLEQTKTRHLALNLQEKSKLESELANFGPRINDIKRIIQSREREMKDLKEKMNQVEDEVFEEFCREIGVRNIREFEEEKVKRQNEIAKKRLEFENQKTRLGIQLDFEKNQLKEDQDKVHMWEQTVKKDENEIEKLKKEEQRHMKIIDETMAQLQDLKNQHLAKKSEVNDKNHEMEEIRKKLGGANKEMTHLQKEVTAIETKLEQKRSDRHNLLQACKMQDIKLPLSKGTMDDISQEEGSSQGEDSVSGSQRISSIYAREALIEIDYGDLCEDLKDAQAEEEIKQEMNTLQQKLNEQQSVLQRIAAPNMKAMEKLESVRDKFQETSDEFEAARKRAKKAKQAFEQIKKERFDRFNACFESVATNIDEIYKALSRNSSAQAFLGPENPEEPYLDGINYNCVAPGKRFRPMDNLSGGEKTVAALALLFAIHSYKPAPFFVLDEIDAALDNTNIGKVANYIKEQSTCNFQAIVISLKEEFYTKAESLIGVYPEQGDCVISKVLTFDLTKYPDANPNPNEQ

For assay [5], the target named is T4, Delta(24)-sterol reductase (Homo sapiens, UniProt Q15392).
T4 sequence (Q15392 whole entry): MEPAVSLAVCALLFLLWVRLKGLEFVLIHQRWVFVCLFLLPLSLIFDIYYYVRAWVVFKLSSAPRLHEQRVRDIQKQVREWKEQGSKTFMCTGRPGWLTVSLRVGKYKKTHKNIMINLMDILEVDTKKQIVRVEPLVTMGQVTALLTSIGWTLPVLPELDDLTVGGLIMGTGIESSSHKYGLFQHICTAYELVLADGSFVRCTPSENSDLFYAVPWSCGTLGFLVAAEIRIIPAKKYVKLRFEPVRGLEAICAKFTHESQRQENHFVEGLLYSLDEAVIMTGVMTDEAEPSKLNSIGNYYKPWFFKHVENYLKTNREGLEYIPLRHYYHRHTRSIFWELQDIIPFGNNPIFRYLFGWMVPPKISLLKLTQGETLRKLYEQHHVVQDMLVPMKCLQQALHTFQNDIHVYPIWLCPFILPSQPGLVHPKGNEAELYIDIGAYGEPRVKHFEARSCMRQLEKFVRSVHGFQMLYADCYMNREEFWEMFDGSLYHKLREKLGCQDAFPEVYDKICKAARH

In assay [6] the target is Atypical kinase COQ8A, mitochondrial (Homo sapiens, UniProt Q8NI60).
Assay [7] addresses Glycogen synthase kinase-3 beta (Homo sapiens, UniProt P49841).

The structures appear in SMILES notation. Calls of active or inactive are those of the source.
Further: in the data inactive means no Kd found up to 30 µM.

Atypical kinase COQ8A, mitochondrial, sequence (Q8NI60 whole entry): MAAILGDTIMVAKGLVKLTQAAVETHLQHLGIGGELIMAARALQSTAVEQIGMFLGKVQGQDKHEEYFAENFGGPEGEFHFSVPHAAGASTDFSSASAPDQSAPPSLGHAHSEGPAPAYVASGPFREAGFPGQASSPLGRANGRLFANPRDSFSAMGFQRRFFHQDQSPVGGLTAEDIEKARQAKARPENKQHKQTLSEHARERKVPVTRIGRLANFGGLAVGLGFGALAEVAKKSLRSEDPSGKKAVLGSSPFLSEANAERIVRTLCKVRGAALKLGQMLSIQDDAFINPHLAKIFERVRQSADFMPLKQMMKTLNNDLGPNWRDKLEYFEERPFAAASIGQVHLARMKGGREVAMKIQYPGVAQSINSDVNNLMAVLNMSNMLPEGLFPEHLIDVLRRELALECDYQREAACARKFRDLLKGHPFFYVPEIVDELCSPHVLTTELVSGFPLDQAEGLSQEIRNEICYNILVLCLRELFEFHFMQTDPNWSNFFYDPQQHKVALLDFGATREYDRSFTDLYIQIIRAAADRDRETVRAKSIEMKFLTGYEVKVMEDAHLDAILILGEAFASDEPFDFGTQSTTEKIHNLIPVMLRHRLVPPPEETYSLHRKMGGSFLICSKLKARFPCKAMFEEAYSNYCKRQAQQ
Glycogen synthase kinase-3 beta, sequence (P49841 whole entry): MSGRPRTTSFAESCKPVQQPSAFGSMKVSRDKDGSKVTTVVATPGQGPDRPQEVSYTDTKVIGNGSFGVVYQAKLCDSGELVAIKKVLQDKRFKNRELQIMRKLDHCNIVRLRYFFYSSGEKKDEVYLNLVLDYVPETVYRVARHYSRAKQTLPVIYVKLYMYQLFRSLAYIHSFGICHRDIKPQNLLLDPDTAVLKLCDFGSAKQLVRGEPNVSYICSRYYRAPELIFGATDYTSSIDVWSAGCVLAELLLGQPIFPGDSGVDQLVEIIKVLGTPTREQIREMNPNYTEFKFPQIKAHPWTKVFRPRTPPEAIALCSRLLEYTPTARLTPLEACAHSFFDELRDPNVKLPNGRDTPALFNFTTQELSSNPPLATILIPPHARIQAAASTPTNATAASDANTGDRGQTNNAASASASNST
Activated CDC42 kinase 1, sequence (Q07912 whole entry): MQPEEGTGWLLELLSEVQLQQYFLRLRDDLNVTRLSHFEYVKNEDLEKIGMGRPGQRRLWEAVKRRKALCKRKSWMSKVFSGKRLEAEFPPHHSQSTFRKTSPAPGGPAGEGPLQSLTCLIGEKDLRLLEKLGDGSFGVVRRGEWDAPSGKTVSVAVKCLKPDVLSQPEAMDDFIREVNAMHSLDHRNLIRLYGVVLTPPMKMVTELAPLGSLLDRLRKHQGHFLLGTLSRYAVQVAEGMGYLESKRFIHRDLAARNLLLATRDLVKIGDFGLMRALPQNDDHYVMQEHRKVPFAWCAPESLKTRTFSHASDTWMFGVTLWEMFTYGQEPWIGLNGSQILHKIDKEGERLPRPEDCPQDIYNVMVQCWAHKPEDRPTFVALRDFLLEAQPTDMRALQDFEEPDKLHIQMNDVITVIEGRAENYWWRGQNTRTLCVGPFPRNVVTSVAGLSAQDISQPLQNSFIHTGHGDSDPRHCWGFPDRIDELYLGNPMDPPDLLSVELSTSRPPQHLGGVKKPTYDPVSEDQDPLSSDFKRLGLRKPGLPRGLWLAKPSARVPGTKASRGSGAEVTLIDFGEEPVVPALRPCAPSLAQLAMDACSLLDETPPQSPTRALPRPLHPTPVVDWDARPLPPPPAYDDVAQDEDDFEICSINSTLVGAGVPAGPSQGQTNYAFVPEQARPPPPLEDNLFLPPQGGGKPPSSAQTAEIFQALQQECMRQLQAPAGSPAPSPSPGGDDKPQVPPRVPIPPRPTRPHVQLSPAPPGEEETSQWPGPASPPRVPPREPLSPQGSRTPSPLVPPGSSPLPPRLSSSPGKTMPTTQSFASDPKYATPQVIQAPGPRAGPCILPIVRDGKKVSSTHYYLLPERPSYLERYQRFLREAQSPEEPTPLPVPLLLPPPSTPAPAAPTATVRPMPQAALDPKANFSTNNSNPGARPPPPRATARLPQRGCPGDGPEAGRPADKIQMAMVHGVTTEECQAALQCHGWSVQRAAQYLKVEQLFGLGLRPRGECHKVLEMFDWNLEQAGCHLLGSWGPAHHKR

Consider `CC(=O)c1cnc2ccc(-c3cc(Cl)c(O)c(Cl)c3)nc2c1N[C@H]1CC[C@H](CN(C)C)CC1`, for which the Kd in assay [1], in assay [2], in assay [3], in assay [4], in assay [5] and in assay [6] was > 30 µM (inactive) throughout.
For the compound `Cc1nc2cc(-c3nn(C(C)C)c4ncnc(N)c34)ccc2o1`, the Kd in assay [1], in assay [2], in assay [3], in assay [4], in assay [5] and in assay [6] was > 30 µM (inactive) throughout.
`COc1cc(Nc2ncc3c(n2)-c2ccc(Cl)cc2C(c2c(F)cccc2OC)=NC3)ccc1C(=O)O` [ALISERTIB]: the Kd in assay [2], in assay [3], in assay [4], in assay [5] and in assay [6] was > 30 µM (inactive) in each case.
For `CNC(=O)c1ccccc1Sc1ccc2c(/C=C/c3ccccn3)n[nH]c2c1` [AXITINIB], the Kd in assay [2], in assay [3], in assay [4] and in assay [5] was > 30 µM (inactive) throughout.
`NC(=O)Nc1cc(-c2cccc(F)c2)sc1C(=O)N[C@H]1CCCNC1` [AZD-7762]: the Kd in assay [1] was 1.09 µM (active); in assay [2], > 30 µM (inactive); in assay [3] it was > 30 µM (inactive); in assay [7] it was > 30 µM (inactive); in assay [5] it was > 30 µM (inactive); in assay [6] it was > 30 µM (inactive).
`C#Cc1cccc(Nc2ncnc3cc(OC)c(OCCCCCCC(=O)NO)cc23)c1` [CUDC-101]: the Kd in assay [1], in assay [2], in assay [3], in assay [7], in assay [5] and in assay [6] was > 30 µM (inactive) throughout.
As for `CC(C)(C)c1nc(-c2cccc(NS(=O)(=O)c3c(F)cccc3F)c2F)c(-c2ccnc(N)n2)s1` [DABRAFENIB], the Kd in assay [2] is > 30 µM (inactive); in assay [3], 0.047 µM (active); in assay [4], > 30 µM (inactive); in assay [5] it was > 30 µM (inactive); in assay [6] it was > 30 µM (inactive).
For `Cn1cc(C2=C(c3cn(C4CCN(Cc5ccccn5)CC4)c4ccccc34)C(=O)NC2=O)c2ccccc21` [ENZASTAURIN], the Kd in assay [2], in assay [3], in assay [4] and in assay [5] was > 30 µM (inactive) in each case.
`Cc1nc2cc(-n3ncc(C(=O)c4cc5ccccc5[nH]4)c3N)ccc2[nH]1` [FGFR INHIBITOR DEBIO 1347]: the Kd in assay [1], in assay [4], in assay [7], in assay [5] and in assay [6] was > 30 µM (inactive) throughout.
Take `C[C@@H](Oc1cc(-n2cnc3ccc(CN4CCN(C)CC4)cc32)sc1C(N)=O)c1ccccc1C(F)(F)F` [GSK-461364]: the Kd in assay [2], in assay [3], in assay [4] and in assay [5] was > 30 µM (inactive) in each case.
On to `NC1(c2ccc(-c3nc4ccn5c(=O)[nH]nc5c4cc3-c3ccccc3)cc2)CCC1` [MK-2206], for which the Kd in assay [1], in assay [3], in assay [4], in assay [7], in assay [5] and in assay [6] was > 30 µM (inactive) throughout.
On to `Cc1[nH]c(/C=C2\C(=O)Nc3ccccc32)c(C)c1CCC(=O)O` [ORANTINIB], for which the Kd in assay [2], in assay [3], in assay [4], in assay [5] and in assay [6] was > 30 µM (inactive) in each case.
Take `NC(=O)c1c(OCc2c(F)cc(Br)cc2F)nsc1NC(=O)NCCCCN1CCCC1` [OSI-632]: the Kd in assay [2] was > 30 µM (inactive); in assay [3] it was > 30 µM (inactive); in assay [4], > 30 µM (inactive); in assay [5], > 30 µM (inactive); in assay [6], 3.05 µM.
Regarding `CC(=O)NCC(=O)N1[C@@H]2CC[C@H]1c1ccc(Nc3ncc(C(F)(F)F)c(NC4CCC4)n3)cc12` [PF-03814735], the Kd in assay [2], in assay [3], in assay [4], in assay [5] and in assay [6] was > 30 µM (inactive) throughout.
For `O=C(NOCCO)c1cc(CN2OCCCC2=O)c(F)c(F)c1Nc1ccc(I)cc1F` [RO-4987655], the Kd in assay [2], in assay [3], in assay [4] and in assay [5] was > 30 µM (inactive) in each case.
Consider `N#CC[C@H](C1CCCC1)n1cc(-c2ncnc3[nH]ccc23)cn1` [RUXOLITINIB], for which the Kd in assay [2], in assay [3], in assay [4] and in assay [5] was > 30 µM (inactive) in each case.
With `Cn1cc(-c2cnn3c(N)c(Br)c([C@@H]4CCCNC4)nc23)cn1` [SCH-900776], the Kd in assay [1], in assay [2], in assay [3], in assay [7], in assay [5] and in assay [6] was > 30 µM (inactive) each time.
Turning to `Cn1ncc(Cl)c1-c1cc(C(=O)N[C@H](CN)Cc2ccc(F)c(F)c2)oc1Cl` [UPROSERTIB], the Kd in assay [1], in assay [3], in assay [7], in assay [5] and in assay [6] was > 30 µM (inactive) throughout.

The term Kd denotes a measure of binding affinity in units of concentration.

Values taken from ChEMBL document CHEMBL3991601, “The target landscape of clinical kinase drugs” (Science, 2017).
